Test results taken from PubChem BioAssay AID330 (DTP/NCI, 2004).
Where “and” joins values, the source holds several entries; their conditions need not be identical. Equal values may be shown once. Toxic doses and inconclusive results are not listed.

System: P388 leukemia ip, CD2F1 mice, survival T/C
Assay: NCI In Vivo Anticancer Drug Screen. Data for tumor model P388 Leukemia (intraperitoneal) in CD2F1 (CDF1) mice
Settings: endpoint: median survival time, higher = longer survival
Procedure, shortened: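 Mice carrying the transplanted tumor received test compound or vehicle. Survival was recorded in each group, and the value is the treated-group measurement divided by that of the vehicle-treated control group.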

[1] = dose: 50.0 mg/kg/injection, schedule: Q01DX005 (ip), vehicle: saline with Tween-80
[2] = dose: 200.0 mg/kg/injection, schedule: Q01DX005 (ip), vehicle: saline with Tween-80
[3] = dose: 50.0 mg/kg/injection, schedule: Q01DX009 (ip), vehicle: saline with Tween-80
[4] = dose: 100.0 mg/kg/injection, schedule: Q01DX009 (ip), vehicle: saline with Tween-80
[5] = dose: 200.0 mg/kg/injection, schedule: Q01DX009 (ip), vehicle: saline with Tween-80
[6] = dose: 100.0 mg/kg/injection, schedule: Q01DX005 (ip), vehicle: saline with Tween-80
[7] = dose: 50.0 mg/kg/injection, schedule: Q01DX005 (ip), vehicle: Klucel (hydroxypropylcellulose) (HPC)
[8] = dose: 100.0 mg/kg/injection, schedule: Q01DX005 (ip), vehicle: Klucel (hydroxypropylcellulose) (HPC)
[9] = dose: 60.0 mg/kg/injection, schedule: Q01DX005 (ip), vehicle: saline with Tween-80
[10] = dose: 120.0 mg/kg/injection, schedule: Q01DX005 (ip), vehicle: saline with Tween-80
[11] = dose: 240.0 mg/kg/injection, schedule: Q01DX005 (ip), vehicle: saline with Tween-80
[12] = dose: 200.0 mg/kg/injection, schedule: Q01DX005 (ip), vehicle: Klucel (hydroxypropylcellulose) (HPC)
[13] = dose: 100.0 mg/kg/injection, schedule: Q01DX001 (ip), vehicle: saline with Tween-80
[14] = dose: 200.0 mg/kg/injection, schedule: Q01DX001 (ip), vehicle: saline with Tween-80
[15] = dose: 400.0 mg/kg/injection, schedule: Q01DX001 (ip), vehicle: saline with Tween-80
[16] = dose: 100.0 mg/kg/injection, schedule: Q04DX003 (ip), vehicle: Klucel (hydroxypropylcellulose) (HPC)
[17] = dose: 200.0 mg/kg/injection, schedule: Q04DX003 (ip), vehicle: Klucel (hydroxypropylcellulose) (HPC)
[18] = dose: 400.0 mg/kg/injection, schedule: Q04DX003 (ip), vehicle: Klucel (hydroxypropylcellulose) (HPC)
[19] = dose: 12.5 mg/kg/injection, schedule: Q01DX009 (ip), vehicle: saline
[20] = dose: 25.0 mg/kg/injection, schedule: Q01DX009 (ip), vehicle: saline
[21] = dose: 50.0 mg/kg/injection, schedule: Q01DX009 (ip), vehicle: saline

Structure (SMILES): CN(C)c1ccc(C2(c3ccccc3)NNC(=O)c3ccccc32)cc1 (stereo not given)
- T/C (dose: 12.5 mg/kg/injection, schedule: Q01DX005 (ip), vehicle: saline with Tween-80): 92 % of control
- T/C (dose: 25.0 mg/kg/injection, schedule: Q01DX005 (ip), vehicle: saline with Tween-80): 88 % of control
- T/C [1]: 88 % of control
- T/C [2]: 86 % of control

Structure (SMILES): N=CC1=C(O)CCOC1=O
- T/C (dose: 100.0 mg/kg/injection, schedule: Q01DX001 (ip), vehicle: saline): 99 % of control
- T/C (dose: 200.0 mg/kg/injection, schedule: Q01DX001 (ip), vehicle: saline): 99 % of control
- T/C (dose: 400.0 mg/kg/injection, schedule: Q01DX001 (ip), vehicle: saline): 100 % of control

Structure (SMILES): O=C1c2ccc[n+]3c2-c2c1ccc[n+]2CC3
- T/C (dose: 12.5 mg/kg/injection, schedule: Q01DX001 (ip), vehicle: saline): 108 % of control
- T/C (dose: 25.0 mg/kg/injection, schedule: Q01DX001 (ip), vehicle: saline): 115 % of control
- T/C (dose: 50.0 mg/kg/injection, schedule: Q01DX001 (ip), vehicle: saline): 101 % of control

Structure (SMILES): CC(=O)Nc1ccc(NC(=S)Nc2ccccc2C(F)(F)F)cc1
- T/C (dose: 50.0 mg/kg/injection, schedule: Q01DX009 (ip), vehicle: Klucel (hydroxypropylcellulose) (HPC)): 96 % of control
- T/C (dose: 100.0 mg/kg/injection, schedule: Q01DX009 (ip), vehicle: Klucel (hydroxypropylcellulose) (HPC)): 92 % of control
- T/C (dose: 200.0 mg/kg/injection, schedule: Q01DX009 (ip), vehicle: Klucel (hydroxypropylcellulose) (HPC)): 87 % of control

Structure (SMILES): CCCCCCC(/C=C/c1c(Cl)cccc1Cl)=N\O
- T/C (dose: 25.0 mg/kg/injection, schedule: Q01DX009 (ip), vehicle: saline with Tween-80): 98 % of control
- T/C [3]: 100 % of control
- T/C [4]: 99 % of control and 109 % of control
- T/C [5]: 101 % of control
- T/C (dose: 400.0 mg/kg/injection, schedule: Q01DX009 (ip), vehicle: saline with Tween-80): 118 % of control

Structure (SMILES): C#CCN1CCCCC1
- T/C (dose: 12.5 mg/kg/injection, schedule: Q01DX005 (ip), vehicle: saline): 105 % of control
- T/C (dose: 25.0 mg/kg/injection, schedule: Q01DX005 (ip), vehicle: saline): 100 % of control
- T/C (dose: 50.0 mg/kg/injection, schedule: Q01DX005 (ip), vehicle: saline): 100 % of control and 107 % of control

Structure (SMILES): Cc1ccc(NC(=O)N(CCCl)N=O)c(C)c1
- T/C (dose: 16.5 mg/kg/injection, schedule: Q04DX003 (ip), vehicle: saline with Tween-80): 190 % of control
- T/C (dose: 25.0 mg/kg/injection, schedule: Q04DX003 (ip), vehicle: saline with Tween-80): 250 % of control
- T/C (dose: 37.5 mg/kg/injection, schedule: Q04DX003 (ip), vehicle: saline with Tween-80): 90 % of control

Structure (SMILES): NC(Cc1c(Br)[nH]c2ccccc12)C(=O)O (stereo not given)
- T/C [1]: 98 % of control
- T/C [6]: 103 % of control
- T/C [2]: 104 % of control

Structure (SMILES): CO/N=C(\N)NC(=O)Cc1c(Cl)cccc1Cl
- T/C (dose: 6.25 mg/kg/injection, schedule: Q01DX005 (ip), vehicle: Klucel (hydroxypropylcellulose) (HPC)): 94 % of control
- T/C (dose: 12.5 mg/kg/injection, schedule: Q01DX005 (ip), vehicle: Klucel (hydroxypropylcellulose) (HPC)): 98 % of control
- T/C (dose: 25.0 mg/kg/injection, schedule: Q01DX005 (ip), vehicle: Klucel (hydroxypropylcellulose) (HPC)): 100 % of control and 101 % of control
- T/C [7]: 103 % of control and 90 % of control
- T/C [8]: 100 % of control

Structure (SMILES): COc1ccc(/C=C2/C(=O)ON=C2C)cc1OC
- T/C [9]: 99 % of control
- T/C [10]: 96 % of control
- T/C [11]: 96 % of control

Structure (SMILES): Nc1cc2cc([N+](=O)[O-])ccc2oc1=O
- T/C (dose: 50.0 mg/kg/injection, schedule: Q01DX005 (ip), vehicle: Klucel + Tween-80): 96 % of control
- T/C (dose: 100.0 mg/kg/injection, schedule: Q01DX005 (ip), vehicle: Klucel + Tween-80): 90 % of control
- T/C (dose: 200.0 mg/kg/injection, schedule: Q01DX005 (ip), vehicle: Klucel + Tween-80): 87 % of control

Structure (SMILES): CC1=NN(C(=O)c2ccncc2)C(=O)C1N=Nc1ccc(S(=O)(=O)Nc2ncccn2)cc1 (stereo not given)
- T/C [3]: 95 % of control
- T/C [4]: 91 % of control
- T/C [5]: 92 % of control

Structure (SMILES): CS(=O)(=O)c1cc(C(=O)O)cc(NCc2ccccc2)c1Oc1ccccc1
- T/C [3]: 106 % of control
- T/C [4]: 96 % of control
- T/C [5]: 102 % of control

Structure (SMILES): O=C(O)CCOc1cccc(OCCC(=O)O)c1
- T/C [7]: 102 % of control
- T/C [8]: 98 % of control
- T/C [12]: 99 % of control

Structure (SMILES): N#CC1=C(Nc2ccccc2Cl)SC(c2c(Cl)cccc2Cl)NC1=O (stereo not given)
- T/C (dose: 60.0 mg/kg/injection, schedule: Q01DX005 (ip), vehicle: Klucel (hydroxypropylcellulose) (HPC)): 90 % of control
- T/C (dose: 120.0 mg/kg/injection, schedule: Q01DX005 (ip), vehicle: Klucel (hydroxypropylcellulose) (HPC)): 100 % of control
- T/C (dose: 240.0 mg/kg/injection, schedule: Q01DX005 (ip), vehicle: Klucel (hydroxypropylcellulose) (HPC)): 93 % of control

Structure (SMILES): CC(=O)/C(N=Nc1ccc(F)cc1F)=C(\C)O
- T/C [1]: 103 % of control
- T/C [6]: 103 % of control
- T/C [2]: 107 % of control

Structure (SMILES): CCN1CC(O)Cc2ccccc21 (stereo not given)
- T/C [9]: 100 % of control
- T/C [10]: 94 % of control

Structure (SMILES): COc1ccc2c(C)cc(N/N=C\c3cccc4ccccc34)nc2c1
- T/C [7]: 98 % of control
- T/C [8]: 93 % of control
- T/C [12]: 106 % of control

Structure (SMILES): O=C(N/N=C/c1cc(Cl)cc(Cl)c1O)c1ccccc1
- T/C [13]: 96 % of control
- T/C [14]: 98 % of control
- T/C [15]: 103 % of control

Structure (SMILES): O=c1c2oc3ccccc3c2cnn1CCl
- T/C [7]: 103 % of control
- T/C [8]: 103 % of control
- T/C [12]: 96 % of control

Structure (SMILES): O=C(c1ccccc1)C(c1ccccc1)n1ncc2c1CCOC2 (stereo not given)
- T/C [16]: 105 % of control
- T/C [17]: 96 % of control
- T/C [18]: 108 % of control

Structure (SMILES): CNCc1cccc2ccnc(C)c12
- T/C [13]: 100 % of control
- T/C [14]: 99 % of control
- T/C [15]: 96 % of control

Structure (SMILES): O=[N+]([O-])c1cccn2nc(C3OC(CO)C(O)C3O)nc12 (stereo not given)
- T/C (dose: 6.25 mg/kg/injection, schedule: Q01DX009 (ip), vehicle: water): 109 % of control
- T/C (dose: 12.5 mg/kg/injection, schedule: Q01DX009 (ip), vehicle: water): 104 % of control
- T/C (dose: 25.0 mg/kg/injection, schedule: Q01DX009 (ip), vehicle: water): 113 % of control
- T/C (dose: 50.0 mg/kg/injection, schedule: Q01DX009 (ip), vehicle: water): 98 % of control
- T/C (dose: 100.0 mg/kg/injection, schedule: Q01DX009 (ip), vehicle: water): 109 % of control

Structure (SMILES): O=c1oc2c3c4c(cc2c2c1CCC2)CCCN4CCC3
- T/C [16]: 102 % of control
- T/C [17]: 101 % of control
- T/C [18]: 100 % of control

Structure (SMILES): Cc1cc2nc3ccc(O)cc3[n+](C)c2cc1N
- T/C [19]: 98 % of control and 103 % of control
- T/C [20]: 100 % of control and 106 % of control
- T/C [21]: 96 % of control and 97 % of control
- T/C (dose: 100.0 mg/kg/injection, schedule: Q01DX009 (ip), vehicle: saline): 99 % of control and 96 % of control

Structure (SMILES): CC(=O)Nc1ccc2nc3n(c(=O)c2c1)CCCC3
- T/C (dose: 100.0 mg/kg/injection, schedule: Q01DX001 (ip), vehicle: Klucel (hydroxypropylcellulose) (HPC)): 101 % of control
- T/C (dose: 200.0 mg/kg/injection, schedule: Q01DX001 (ip), vehicle: Klucel (hydroxypropylcellulose) (HPC)): 101 % of control
- T/C (dose: 400.0 mg/kg/injection, schedule: Q01DX001 (ip), vehicle: Klucel (hydroxypropylcellulose) (HPC)): 100 % of control

Structure (SMILES): COC(=O)OC(C#N)c1ccc([N+](=O)[O-])cc1 (stereo not given)
- T/C [19]: 99 % of control and 88 % of control
- T/C [20]: 93 % of control and 97 % of control
- T/C [21]: 90 % of control and 97 % of control
- T/C (dose: 50.0 mg/kg/injection, schedule: Q01DX009 (ip), vehicle: suspension in saline): 97 % of control

Structure (SMILES): COc1cc(/C=C/C(=O)NCCCCN=[N+]=[N-])ccc1OCc1ccccc1
- T/C [9]: 93 % of control
- T/C [10]: 96 % of control
- T/C [11]: 97 % of control

Structure (SMILES): O=C1c2cccnc2C(=O)N1Cc1ccccc1
- T/C (dose: 100.0 mg/kg/injection, schedule: Q04DX003 (ip), vehicle: saline with Tween-80): 95 % of control
- T/C (dose: 200.0 mg/kg/injection, schedule: Q04DX003 (ip), vehicle: saline with Tween-80): 95 % of control
- T/C (dose: 400.0 mg/kg/injection, schedule: Q04DX003 (ip), vehicle: saline with Tween-80): 90 % of control
